Data reported in patent US20080267905A1, “Methods and Compositions Using Selective Cytokine Inhibitory Drugs for Treatment and Management of Cancers and Other Diseases” (CELGENE CORPORATION, priority 2004, published 2008).

Columns and labels:
TNF-α production = assay: Inhibition of TNF-α production following LPS-stimulation of human PBMC and human whole blood (in vitro cytokine studies); format: cell-based; conditions: compared with thalidomide
Text: In a specific embodiment, the pharmacological properties of 3-(3,4-dimethoxy-phenyl)-3-(1-oxo-1,3-dihydro-isoindol-2-yl)-propionamide are characterized in in vitro studies. Studies examine the effects of the compound on the production of various cytokines. Inhibition of TNF-α production following LPS-stimulation of human PBMC and human whole blood by the compound is investigated in vitro. […] The pharmacological effects of 3-(3,4-dimethoxy-phenyl)-3-(1-oxo-1,3-dihydro-isoindol-2-yl)-propionamide may derive from its action as an inhibitor of the generation of inflammatory cytokines.

[1] = Cardiovascular and respiratory function in anesthetized dogs; format: in vivo; conditions: anesthetized Beagle dogs
Protocol: The effects of 3-(3,4-dimethoxy-phenyl)-3-(1-oxo-1,3-dihydro-isoindol-2-yl)-propionamide on cardiovascular and respiratory function are investigated in anesthetized dogs. Two groups of Beagle dogs (2/sex/group) are used. One group receives three doses of vehicle only and the other receives three ascending doses of the compound (200, 400, and 800 mg/kg). In all cases, doses of the compound or vehicle are successively administered via infusion through the jugular vein separated by intervals of at least 30 minutes.

COc1ccc(C(CC(N)=O)N2Cc3ccccc3C2=O)cc1OC (stereo not drawn) [3-(3,4-dimethoxy-phenyl)-3-(1-oxo-1,3-dihydro-isoindol-2-yl)-propionamide]
pharmacological activity profile, potency relative to thalidomide (TNF-α production): five to fifty times more potent than thalidomide | cardiovascular and respiratory changes ([1]; all doses (200, 400, and 800 mg/kg), infusion through the jugular vein, compared to vehicle control group): minimal | deviations in femoral blood flow, respiratory parameters, and Qtc interval ([1]; common to both the control and treated groups): not considered treatment-related | arterial blood pressure ([1]; following administration of the low dose, only statistically significant difference vs vehicle): small increase | arterial blood pressure effect at higher doses ([1]; higher doses): not seen at higher doses | duration of the arterial blood pressure effect ([1]; low dose): approximately 15 minutes
